Assay results published in patent publication US9365584B2, “Thieno [2,3-B] pyridinedione activators of AMPK and therapeutic uses thereof” (Poxel, priority 2009, dated 2016).

System: AMPK
Experiment: AMPK enzyme activity assay (Delfia technology, AMARA peptide substrate)
Assay type: biochemical
Settings: compound at 30 μM vs AMP at 200 μM
Method in brief: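 Value is the ratio of compound (30 μM) to AMP (200 μM) response, each as % of basal control. Phosphorylation of the AMARA peptide after AMPK addition was read by Delfia with an anti-phosphoserine antibody.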

| Structure (SMILES) | Activity: Ratio between the % of control (basal activity) of compound of formula (1) at 30 μM and the % of control (basal activity) of AMP (natural substrate) at 200 μM |
| --- | --- |
| COc1cc(C)ccc1-c1c(F)sc2c1C(=O)C(F)(c1ccccc1)C(=O)N2 (stereo not drawn) [No 119, 2,5-difluoro-3-(2-methoxy-4-methyl-phenyl)-5-phenyl-7H-thieno[2,3-b]pyridine-4,6-dione] | B (50%≦B<75%) |
| CS(=O)(=O)c1cccc(-c2csc3c2C(=O)C(F)(c2ccccc2)C(=O)N3)c1 (stereo not drawn) [No 120, 5-fluoro-3-(3-methylsulfonylphenyl)-5-phenyl-7H-thieno[2,3-b]pyridine-4,6-dione] | A (0%<A<50%) |
| Cc1ccc(-c2csc3c2C(=O)C(F)(c2ccccc2)C(=O)N3)c(O)c1 (stereo not drawn) [No 121, 5-fluoro-3-(2-hydroxy-4-methyl-phenyl)-5-phenyl-7H-thieno[2,3-b]pyridine-4,6-dione] | C (C≧75%) |
| O=C1Nc2scc(-c3c(F)cccc3F)c2C(=O)C1(F)c1ccccc1 (stereo not drawn) [No 122, 3-(2,6-difluorophenyl)-5-fluoro-5-phenyl-7H-thieno[2,3-b]pyridine-4,6-dione] | C (C≧75%) |
| O=C1Nc2scc(-c3ccc(Br)cc3O)c2C(=O)C1(F)c1ccccc1 (stereo not drawn) [No 123, 3-(4-bromo-2-hydroxy-phenyl)-5-fluoro-5-phenyl-7H-thieno[2,3-b]pyridine-4,6-dione] | C (C≧75%) |
| O=C1Nc2scc(-c3ccc(Br)cc3)c2C(=O)C1(F)c1ccncc1 (stereo not drawn) [No 124, 3-(4-bromophenyl)-5-fluoro-5-(4-pyridyl)-7H-thieno[2,3-b]pyridine-4,6-dione] | B (50%≦B<75%) |
| O=C1Nc2scc(-c3ccccc3Br)c2C(=O)C1(F)c1ccccc1 (stereo not drawn) [No 125, 3-(2-bromophenyl)-5-fluoro-5-phenyl-7H-thieno[2,3-b]pyridine-4,6-dione] | A (0%<A<50%) |
| COc1cccc(C2(C)C(=O)Nc3sc(Cl)c(-c4cccc(C)c4)c3C2=O)c1 (stereo not drawn) [No 126, 2-chloro-5-(3-methoxyphenyl)-5-methyl-3-(m-tolyl)-7H-thieno[2,3-b]pyridine-4,6-dione] | B (50%≦B<75%) |
| COc1cc(Br)ccc1-c1csc2c1C(=O)C(F)(c1ccccc1)C(=O)N2 (stereo not drawn) [No 127, 3-(4-bromo-2-methoxy-phenyl)-5-fluoro-5-phenyl-7H-thieno[2,3-b]pyridine-4,6-dione] | A (0%<A<50%) |
| COc1cc(Br)ccc1-c1c(F)sc2c1C(=O)C(F)(c1ccccc1)C(=O)N2 (stereo not drawn) [No 128, 3-(4-bromo-2-methoxy-phenyl)-2,5-difluoro-5-phenyl-7H-thieno[2,3-b]pyridine-4,6-dione] | A (0%<A<50%) |
| Cc1ccccc1-c1csc2c1C(=O)C(F)(c1ccccc1)C(=O)N2 (stereo not drawn) [No 129, 5-fluoro-3-(o-tolyl)-5-phenyl-7H-thieno[2,3-b]pyridine-4,6-dione] | B (50%≦B<75%) |
| Cc1ccccc1-c1c(F)sc2c1C(=O)C(F)(c1ccccc1)C(=O)N2 (stereo not drawn) [No 130, 2,5-difluoro-3-(o-tolyl)-5-phenyl-7H-thieno[2,3-b]pyridine-4,6-dione] | B (50%≦B<75%) |
| O=C1Nc2scc(-c3ccccc3)c2C(=O)C1(F)c1cccc(C(F)(F)F)c1 (stereo not drawn) [No 131, 5-fluoro-3-phenyl-5-[3-(trifluoromethyl)phenyl]-7H-thieno[2,3-b]pyridine-4,6-dione] | B (50%≦B<75%) |
| O=C1Nc2sc(F)c(-c3ccccc3)c2C(=O)C1(F)c1cccc(C(F)(F)F)c1 (stereo not drawn) [No 132, 2,5-difluoro-3-phenyl-5-[3-(trifluoromethyl)phenyl]-7H-thieno[2,3-b]pyridine-4,6-dione] | A (0%<A<50%) |
| O=C1Nc2scc(-c3ccccc3)c2C(=O)C1(F)c1ccc(C(F)(F)F)cc1 (stereo not drawn) [No 133, 5-fluoro-3-phenyl-5-[4-(trifluoromethyl)phenyl]-7H-thieno[2,3-b]pyridine-4,6-dione] | A (0%<A<50%) |
| O=C1Nc2sc(F)c(-c3ccccc3)c2C(=O)C1(F)c1ccc(C(F)(F)F)cc1 (stereo not drawn) [No 134, 2,5-difluoro-3-phenyl-5-[4-(trifluoromethyl)phenyl]-7H-thieno[2,3-b]pyridine-4,6-dione] | A (0%<A<50%) |
| O=C1Nc2scc(-c3ccc(C(F)(F)F)cc3)c2C(=O)C1(F)c1ccccc1 (stereo not drawn) [No 135, 5-fluoro-5-phenyl-3-[4-(trifluoromethyl)phenyl]-7H-thieno[2,3-b]pyridine-4,6-dione] | A (0%<A<50%) |
| Cc1cccc(-c2csc3c2C(=O)C(F)(c2ccccc2)C(=O)N3)c1 (stereo not drawn) [No 136, 5-fluoro-3-(m-tolyl)-5-phenyl-7H-thieno[2,3-b]pyridine-4,6-dione] | B (50%≦B<75%) |
| Cc1cccc(-c2c(F)sc3c2C(=O)C(F)(c2ccccc2)C(=O)N3)c1 (stereo not drawn) [No 137, 2,5-difluoro-3-(m-tolyl)-5-phenyl-7H-thieno[2,3-b]pyridine-4,6-dione] | C (C≧75%) |
| O=C1Nc2scc(-c3ccccc3Cl)c2C(=O)C1(F)c1ccccc1 (stereo not drawn) [No 138, 3-(2-chlorophenyl)-5-fluoro-5-phenyl-7H-thieno[2,3-b]pyridine-4,6-dione] | B (50%≦B<75%) |
| CC1(c2cccc(S(C)(=O)=O)c2)C(=O)Nc2sc(Cl)c(-c3ccccc3F)c2C1=O (stereo not drawn) [No 139, 2-chloro-3-(2-fluorophenyl)-5-methyl-5-(3-methyl-sulfonylphenyl)-7H-thieno[2,3-b]pyridine-4,6-dione] | A (0%<A<50%) |
| CC1(c2ccc(O)cc2)C(=O)Nc2sc(Cl)c(-c3ccccc3)c2C1=O (stereo not drawn) [No 140, 2-chloro-5-(4-hydroxyphenyl)-5-methyl-3-phenyl-7H-thieno[2,3-b]pyridine-4,6-dione] | A (0%<A<50%) |
| COc1ccccc1-c1c(Cl)sc2c1C(=O)C(C)(c1ccc(S(C)(=O)=O)cc1)C(=O)N2 (stereo not drawn) [No 141, 2-chloro-3-(2-methoxyphenyl)-5-methyl-5-(4-methyl-sulfonylphenyl)-7H-thieno[2,3-b]pyridine-4,6-dione] | A (0%<A<50%) |
| CC(C)(C)c1ccc(-c2csc3c2C(=O)C(F)(c2ccccc2)C(=O)N3)cc1 (stereo not drawn) [No 142, 3-(4-tert-butylphenyl)-5-fluoro-5-phenyl-7H-thieno[2,3-b]pyridine-4,6-dione] | A (0%<A<50%) |
| CC(C)(C)c1ccc(-c2c(Cl)sc3c2C(=O)C(F)(c2ccccc2)C(=O)N3)cc1 (stereo not drawn) [No 143, 3-(4-tert-butylphenyl)-2-chloro-5-fluoro-5-phenyl-7H-thieno[2,3-b]pyridine-4,6-dione] | A (0%<A<50%) |
| Cc1ccc(-c2c(Cl)sc3c2C(=O)C(C)(c2cccc(C)c2)C(=O)N3)cc1 (stereo not drawn) [No 144, 2-chloro-5-methyl-5-(m-tolyl)-3-(p-tolyl)-7H-thieno[2,3-b]pyridine-4,6-dione] | A (0%<A<50%) |
| COc1ccccc1-c1c(Cl)sc2c1C(=O)C(C)(c1ccccc1)C(=O)N2 (stereo not drawn) [No 145, 2-chloro-3-(2-methoxyphenyl)-5-methyl-5-phenyl-7H-thieno[2,3-b]pyridine-4,6-dione] | A (0%<A<50%) |
| COc1ccc(C2(C)C(=O)Nc3sc(Cl)c(-c4cccc(F)c4)c3C2=O)cc1 (stereo not drawn) [No 146, 2-chloro-3-(3-fluorophenyl)-5-(4-methoxyphenyl)-5-methyl-7H-thieno[2,3-b]pyridine-4,6-dione] | A (0%<A<50%) |
| O=C1Nc2scc(-c3ccccc3O)c2C(=O)C1(F)c1ccccc1 (stereo not drawn) [No 147, 5-fluoro-3-(2-hydroxyphenyl)-5-phenyl-7H-thieno[2,3-b]pyridine-4,6-dione] | C (C≧75%) |
| CC1(c2cccc(S(C)(=O)=O)c2)C(=O)Nc2sc(Cl)c(-c3cccc(F)c3)c2C1=O (stereo not drawn) [No 148, 2-chloro-3-(3-fluorophenyl)-5-methyl-5-(3-methyl-sulfonylphenyl)-7H-thieno[2,3-b]pyridine-4,6-dione] | A (0%<A<50%) |
